Experimental data reported in patent publication US5550139A, “Serine protease inhibitors” (The Wichita State University, priority 1994, dated 1996).
Values joined by “and” are separate entries in the source; they are usually repeats but may differ in a detail not shown here. Identical values can stand only once.

Tests used:
[1] = system: neutrophil elastase; test: Elastase activity and cell number in peripheral blood neutrophils after administration to rats; format: in vivo; conditions: rat, 8 mg/kg twice daily i.v. for three days
Description: (§1) Inhibitor A or B were each injected twice daily into the tail vein of a rat (8 mg/kg) over a period of three days. Inflammation was not induced in these rats. […] WBC=white blood cells; PMN=polymorphonuclear leukocytes; The elastase assay has been disclosed above.

[2] = system: peripheral blood neutrophils and lymphocytes; test: Peripheral blood cell distribution after administration to rats without inflammation; format: in vivo; conditions: rat, 8 mg/kg twice daily for three days, no inflammation
Description: Compound A or Compound B were each administered twice daily for three days at a dose of 8 mg/kg. Inflammation was not induced in these rats. […] However, substitution of the aspirin moiety with a fluorine atom, as found in Compound B, prevents an increase in neutrophil cell number.

[3] = system: neutrophil diapedesis (peritonitis); test: Inhibition of neutrophil diapedesis after experimentally induced (starch) peritonitis; format: in vivo, rat; conditions: for Abdominal Lavage Cell Distribution, Lymphocytes / Abdominal Lavage Cell Distribution, Macrophages Monocytes / Abdominal Lavage Cell Distribution, Neutrophils: 4 hours
Description: (§2) Each compound (A-D) was individually injected into the tail vein of a rat in a single dose (8 mg/kg). After injection, peritonitis was induced in the rat by an IP (intraperitoneal) injection of 1 ml of a 0.1% soluble starch solution. After 4 hours, the peritoneal cavity was lavaged with saline in order to determine the number and type of cells responding to peritonitis. Cell numbers were determined by a Coulter counter and cell type (e.g. lymphocytes, neutrophils, macrophages and monocytes) by standard Cytospin and Giemsa staining. Cell number and type was evaluated after IP injection of saline (negative control, no inflammation), starch (positive control, inflammation) or starch with IV injection of an inhibitor (experimental, inflammation). Inhibitors were dissolved in DMSO prior to administration.

[4] = system: rat; test: Overt toxicity in injected rats; format: in vivo; conditions: rat, 8 mg/kg twice daily i.v. for three days
Description: as §1, §2

[5] = peripheral blood neutrophils, per animal, 8 mg/kg
[6] = Experiment 1, starch, 8 mg/kg i.v. single dose
[7] = Experiment 2, saline (no inflammation) + drug
[8] = Experiment 2, starch, 8 mg/kg i.v. single dose

O=C1c2ccccc2S(=O)(=O)N1CF [Drug B]
Elastase Activity [1, 5]: 0.125 ΔOD/min/ml and 0.05 ΔOD/min/ml | Elastase Activity Rate/10^6 PMN [1, 5]: 0.0154 and 0.0159 | entry into neutrophils in vivo (in words) [1]: do not enter neutrophils in vivo | inactivation of neutrophil intracellular proteinase (in words) [1]: fails to inactivate neutrophil intracellular proteinase | PMN ([1]; per animal, 8 mg/kg): 8.14 × 10^6 and 3.15 × 10^6 | Total WBC ([1]; per animal, 8 mg/kg): 22.0 × 10^6 and 15.0 × 10^6 | effect on elastase activity in circulating neutrophils (in words) ([1]; vs vehicle): did not reduce elastase activity in circulating neutrophils | Peripheral Blood Cell Distribution, Lymphocytes ([2]; per animal, 8 mg/kg): 63% and 79% | Peripheral Blood Cell Distribution, Neutrophils ([2]; per animal, 8 mg/kg): 37% and 21% | effect on number of neutrophils in peripheral circulation (in words) ([2]; vs vehicle): did not cause an increase in neutrophil number | Total Number of Cells Lavaged at 4 Hours, Lymphocytes [3, 6]: 8.1 × 10^6 | Total Number of Cells Lavaged at 4 Hours, Macrophages Monocytes [3, 6]: 7.8 × 10^6 | Total Number of Cells Lavaged at 4 Hours, Neutrophils [3, 6]: 10.1 × 10^6 | Total Number of Cells Lavaged at 4 Hours, Total Cells [3, 6]: 26 × 10^6 | Abdominal Lavage Cell Distribution, Lymphocytes [3, 6]: 31% | Abdominal Lavage Cell Distribution, Macrophages Monocytes [3, 6]: 30% | Abdominal Lavage Cell Distribution, Neutrophils [3, 6]: 39% | Total Number of Cells Lavaged at 4 Hours, Lymphocytes [3, 7]: 2.6 × 10^6 | Total Number of Cells Lavaged at 4 Hours, Macrophages Monocytes [3, 7]: 14.5 × 10^6 | Total Number of Cells Lavaged at 4 Hours, Neutrophils [3, 7]: 4.8 × 10^6 | Total Number of Cells Lavaged at 4 Hours, Total Cells [3, 7]: 22 × 10^6 | Abdominal Lavage Cell Distribution, Lymphocytes [3, 7]: 12% | Abdominal Lavage Cell Distribution, Macrophages Monocytes [3, 7]: 66% | Abdominal Lavage Cell Distribution, Neutrophils [3, 7]: 22% | Total Number of Cells Lavaged at 4 Hours, Lymphocytes [3, 8]: 9.9 × 10^6 | Total Number of Cells Lavaged at 4 Hours, Macrophages Monocytes [3, 8]: 9.6 × 10^6 | Total Number of Cells Lavaged at 4 Hours, Neutrophils [3, 8]: 12.5 × 10^6 | Total Number of Cells Lavaged at 4 Hours, Total Cells [3, 8]: 32 × 10^6 | Abdominal Lavage Cell Distribution, Lymphocytes [3, 8]: 31% | Abdominal Lavage Cell Distribution, Macrophages Monocytes [3, 8]: 30% | Abdominal Lavage Cell Distribution, Neutrophils [3, 8]: 39% | reduction of peritonitis induced neutrophil diapedesis ([3]; rat, 8 mg/kg i.v. single dose): more than 50% | overt signs of toxicity [4]: no overt signs of toxicity
